# Results from ChEMBL document CHEMBL1629642, “In vitro efficacy of ST246 against smallpox and monkeypox” (Antimicrob Agents Chemother, 2009).
# Calls of active or inactive are those of the source. No cut-off for these calls is given here.
# Assays:
# Variola virus [1] = experiment: Antiviral activity against Variola virus SLN68-258 infected in african green monkey BSC-40 cells at 0.015 uM by IHC staining-based comet tail reduction assay; type: functional, organism-based
# Variola virus [2] = experiment: Antiviral activity against Variola virus NEP73-175 infected in african green monkey BSC-40 cells at 0.05 to 5 uM assessed as reduction in virus-induced cytopathic effect; type: functional, organism-based
# Variola virus [3] = experiment: Antiviral activity against Variola virus BSH74-sol infected in african green monkey BSC-40 cells at 0.015 uM by IHC staining-based comet tail reduction assay; type: functional, organism-based
# Variola virus [4] = experiment: Antiviral activity against Variola virus SOM77-ali infected in african green monkey BSC-40 cells at 0.05 to 0.5 uM by IHC staining-based comet tail reduction assay; type: functional, organism-based
# Monkeypox virus [5] = experiment: Antiviral activity against Monkeypox virus V78-I-3945 infected in african green monkey BSC-40 cells assessed as reduction in virus-induced cytopathic effect at 0.015 uM; type: functional, organism-based
# Variola virus [6] = experiment: microbe, parasite or virus in culture; details: NEP73-175, BSC-40
# Monkeypox virus [7] = experiment: Antiviral activity against Monkeypox virus V1979-I-005 infected in african green monkey BSC-40 cells assessed as reduction in virus-induced cytopathic effect; type: functional, organism-based; details: V1979-I-005, BSC-40
# Monkeypox virus [8] = experiment: Antiviral activity against Monkeypox virus V77-I-823 infected in african green monkey BSC-40 cells assessed as reduction in virus-induced cytopathic effect; type: functional, organism-based; details: V77-I-823, BSC-40
# Monkeypox virus [9] = experiment: Antiviral activity against Monkeypox virus V77-I-823 infected in african green monkey BSC-40 cells at 0.05 to 0.5 uM by IHC staining-based comet tail reduction assay; type: functional, organism-based
# Monkeypox virus [10] = experiment: Antiviral activity against Monkeypox virus V81-I-179 infected in african green monkey BSC-40 cells at 0.005 uM uM by IHC staining-based plaque reduction assay; type: functional, organism-based
# Variola virus [11] = experiment: Antiviral activity against Variola virus BSH74-sol infected in african green monkey BSC-40 cells at 0.05 to 0.5 uM by IHC staining-based comet tail reduction assay; type: functional, organism-based
# Camelpox virus = experiment: Antiviral activity against Camelpox virus infected in african green monkey Vero cells assessed as reduction in virus-induced cytopathic effect; type: functional, organism-based
# Variola virus [12] = experiment: Antiviral activity against Variola virus SUD47-juba infected in african green monkey BSC-40 cells assessed as reduction in viral plaque formation at 0.015 uM uM by IHC staining-based plaque reduction assay; type: functional
# Variola virus [13] = experiment: Antiviral activity against Variola virus SOM77-ali infected in african green monkey BSC-40 cells at 0.05 to 5 uM assessed as reduction in virus-induced cytopathic effect; type: functional, organism-based
# Variola virus [14] = experiment: microbe, parasite or virus in culture; details: SLN68-258, BSC-40
# Monkeypox virus [15] = experiment: Antiviral activity against Monkeypox virus V77-I-823 infected in african green monkey BSC-40 cells at 0.005 uM by IHC staining-based comet tail reduction assay; type: functional, organism-based
# Variola virus [16] = experiment: Antiviral activity against Variola virus SLN68-258 infected in african green monkey BSC-40 cells at 0.015 uM assessed as reduction in virus-induced cytopathic effect; type: functional, organism-based
# Variola virus [17] = experiment: Antiviral activity against Variola virus SOM77-ali infected in african green monkey BSC-40 cells assessed as reduction in viral plaque formation at 0.015 uM uM by IHC staining-based plaque reduction assay; type: functional
# Monkeypox virus [18] = experiment: Antiviral activity against Monkeypox virus V77-I-823 infected in african green monkey BSC-40 cells assessed as reduction in virus-induced cytopathic effect at 0.015 uM; type: functional, organism-based
# Monkeypox virus [19] = experiment: Antiviral activity against Monkeypox virus V77-I-823 infected in african green monkey BSC-40 cells at 0.015 uM by IHC staining-based comet tail reduction assay; type: functional, organism-based
# Variola virus [20] = experiment: Antiviral activity against Variola virus NEP73-175 infected in african green monkey BSC-40 cells at 0.05 to 0.5 uM by IHC staining-based plaque reduction assay; type: functional, organism-based
# Monkeypox virus [21] = experiment: Antiviral activity against Monkeypox virus infected in african green monkey vero cells assessed as reduction in virus-induced cytopathic effect; type: functional, organism-based
# Variola virus [22] = experiment: Antiviral activity against Variola virus NEP73-175 infected in african green monkey BSC-40 cells at 0.015 uM assessed as reduction in virus-induced cytopathic effect; type: functional, organism-based
# Monkeypox virus [23] = experiment: Antiviral activity against Monkeypox virus 2003-USA-039 infected in african green monkey BSC-40 cells assessed as reduction in viral plaque formation at 0.015 uM uM by IHC staining-based plaque reduction assay; type: functional
# Variola virus [24] = experiment: Antiviral activity against Variola virus BRZ66-39 infected in african green monkey BSC-40 cells at 0.05 to 5 uM assessed as reduction in virus-induced cytopathic effect; type: functional, organism-based
# Monkeypox virus [25] = experiment: Antiviral activity against Monkeypox virus V78-I-3945 infected in african green monkey BSC-40 cells at 0.005 uM uM by IHC staining-based plaque reduction assay; type: functional, organism-based
# Variola virus [26] = experiment: Antiviral activity against Variola virus SLN68-258 infected in african green monkey BSC-40 cells at 0.005 uM by IHC staining-based comet tail reduction assay; type: functional, organism-based
# Variola virus [27] = experiment: Antiviral activity against Variola virus SOM77-ali infected in african green monkey BSC-40 cells at 0.015 uM by IHC staining-based comet tail reduction assay; type: functional, organism-based
# Variola virus [28] = experiment: microbe, parasite or virus in culture; details: SOM77-ali, BSC-40
# Monkeypox virus [29] = experiment: Antiviral activity against Monkeypox virus V78-I-3945 infected in african green monkey BSC-40 cells at 0.015 uM by IHC staining-based comet tail reduction assay; type: functional, organism-based
# Variola virus [30] = experiment: Antiviral activity against Variola virus NEP73-175 infected in african green monkey BSC-40 cells at 0.05 to 0.5 uM by IHC staining-based comet tail reduction assay; type: functional, organism-based
# Monkeypox virus [31] = experiment: Antiviral activity against Monkeypox virus V77-I-823 infected in african green monkey BSC-40 cells at 0.005 uM uM by IHC staining-based plaque reduction assay; type: functional, organism-based
# Monkeypox virus [32] = experiment: Antiviral activity against Monkeypox virus V1979-I-005 infected in african green monkey BSC-40 cells assessed as reduction in viral plaque formation at 0.015 uM uM by IHC staining-based plaque reduction assay; type: functional
# Variola virus [33] = experiment: Antiviral activity against Variola virus BRZ66-39 infected in african green monkey BSC-40 cells at 0.05 to 0.5 uM by IHC staining-based comet tail reduction assay; type: functional, organism-based
# Monkeypox virus [34] = experiment: Antiviral activity against Monkeypox virus V81-I-179 infected in african green monkey BSC-40 cells assessed as reduction in virus-induced cytopathic effect; type: functional, organism-based; details: V81-I-179, BSC-40
# Variola virus [35] = experiment: Antiviral activity against Variola virus BRZ66-39 infected in african green monkey BSC-40 cells at 0.015 uM assessed as reduction in virus-induced cytopathic effect; type: functional, organism-based
# Cowpox virus = experiment: Antiviral activity against Cowpox virus infected in african green monkey Vero cells assessed as reduction in virus-induced cytopathic effect; type: functional, organism-based
# Monkeypox virus [36] = experiment: Antiviral activity against Monkeypox virus V81-I-179 infected in african green monkey BSC-40 cells assessed as reduction in virus-induced cytopathic effect at 0.05 to 5 uM; type: functional, organism-based
compound,measurement,setting,value
O=C(NN1C(=O)[C@@H]2[C@@H]3C=C[C@@H]([C@H]4C[C@@H]34)[C@@H]2C1=O)c1ccc(C(F)(F)F)cc1 [TECOVIRIMAT],Activity,Variola virus [1],Active
same,Activity,Variola virus [2],Active
same,Activity,Variola virus [3],Active
same,Activity,Variola virus [4],Active
same,Activity,Monkeypox virus [5],Active
same,EC50,Variola virus [6],21 nM
same,EC50,Monkeypox virus [7],39 nM
same,EC50,Monkeypox virus [8],30 nM
same,Activity,Monkeypox virus [9],Active
same,Activity,Monkeypox virus [10],inactive
same,Activity,Variola virus [11],Active
same,Activity,Camelpox virus,Active
same,inhibition (INH),Variola virus [12],50%
same,Activity,Variola virus [13],Active
same,EC50,Variola virus [14],37 nM
same,Activity,Monkeypox virus [15],inactive
same,Activity,Variola virus [16],Active
same,inhibition (INH),Variola virus [17],50%
same,Activity,Monkeypox virus [18],Active
same,Activity,Monkeypox virus [19],Active
same,Activity,Variola virus [20],Active
same,Activity,Monkeypox virus [21],Active
same,Activity,Variola virus [22],Active
same,inhibition (INH),Monkeypox virus [23],50%
same,Activity,Variola virus [24],Active
same,Activity,Monkeypox virus [25],inactive
same,Activity,Variola virus [26],inactive
same,Activity,Variola virus [27],Active
same,EC50,Variola virus [28],28 nM
same,Activity,Monkeypox virus [29],Active
same,Activity,Variola virus [30],Active
same,Activity,Monkeypox virus [31],inactive
same,inhibition (INH),Monkeypox virus [32],50%
same,Activity,Variola virus [33],Active
same,EC50,Monkeypox virus [34],32 nM
same,Activity,Variola virus [35],Active
same,Activity,Cowpox virus,Active
same,Activity,Monkeypox virus [36],Active
